Test results published in PMC6168621 (Frontiers in Pharmacology, 2018).
Entries after “also recorded” stand apart in the source; their conditions may differ. Read-outs that look alike come from different tables or passages of the source. Marks after values point to notes of the source that are not given here.

Legend:
[1] = LC-MS/MS analysis of forensic clinical samples (urine, serum); type: in vivo; details: human forensic clinical sample; for Concentration in serum: Patient 002, serum (text: blood); for Concentration in urine: Patient 002, urine
Text: For human studies, ToxBox® analytical test kits were provided by PinPoint Testing, LLC (Little Rock, AR, United States) to streamline sample preparation and testing procedures for SCBs, confounding drugs of abuse and other non-specified NPSs. ToxBox® contained NIST-traceable, certified reference material for all standards and isotopically-labeled internal standards along with ISOLUTE® SLE+ 96-well plates manufactured by Biotage (Charlotte, NC, United States). This newly developed kit identifies not only novel SCBs and associated metabolites, but also over 200 drugs and other NPSs that often confound such analytical tests. Optima-grade formic acid, acetonitrile, and methanol were purchased from Fisher Scientific (Fair Lawn, NJ, United States). Deionized water was purified to 18.2 MΩ⋅cm resistivity using the equivalent of a Millipore laboratory water purification system. All other chemicals and supplies were provided by Cerilliant (Round Rock, TX, United States), Cayman Chemical Company (Ann Arbor, Michigan, United States), Lipomed (Cambridge, MA), Biotage (Charlotte, NC, United States) or HemoStat Laboratories (Dixon, CA, United States). Blank defibrinated sheep blood or blank human blood void of drug contamination was used for all studies.
Supported liquid extraction (SLE) procedures were optimized for 96-wellplate processing on a PerkinElmer Zephyr G3 SPE Workstation (Waltham, MA, United States). Sample extracts were analyzed using an Agilent 1260 quaternary liquid chromatography system (Santa Clara, CA, United States) coupled to an Agilent 6420 tandem mass spectrometer (LC-MS/MS). Instrument control and data acquisition relied on MassHunter LC/MS Data Acquisition (VER B.08.00). Data analysis was performed using MassHunter Quantitative Analysis (VER B.07.01 SP2).
Use of this material was approved by the Institutional Review Board of the University of Arkansas for Medical Sciences (Little Rock, AR, United States) (IRB #217584).
All blood calibration standards, QC material, and unknown samples were processed identically by mixing 0.25 ml of blank blood or unknown specimen in appropriate wells at 900 rpm for 15 min, pretreating with 0.25 mL of 0.5 M ammonium hydroxide, and then mixing for another 15 min at 900 rpm. Samples were then loaded, under gentle vacuum or positive pressure, onto a 400 mg ISOLUTE® SLE+ 96-wellplate. Samples were allowed to equilibrate for 5 min before extracting under gravity with two fractions of 900 μL of ethyl acetate. All sample extracts were evaporated to dryness under a gentle flow of nitrogen and reconstituted in 100% methanol (100 μl).
Analytical procedures used 5 μl injections on a 2.6 μm Phenomenex Kinetex Phenyl Hexyl (50 × 4.6 mm) LC column heated to 35°C. Analytes were resolved at 0.5 mL/min using mobile phase A (10 mM ammonium formate in ultrapure 18.2 MΩ⋅cm water) and mobile phase B (0.1% formic acid in methanol). Analytes are resolved using a gradient starting at 95% aqueous (Mobile Phase A) and ramping to 0% aqueous over 4 min, and holding constant for 1 min. The gradient returned to initial conditions over 0.1 min and equilibrated for an additional 1.9 min. The total run time including column equilibration period between injections was 7.0 min. Specific mass spectrometer and analyte parameters are provided in Supplementary Tables S2, S3.

hCB1Rs [2] = target: T1, hCB1Rs (Homo sapiens, UniProt P21554); assay: cell-based; type: cell-based; details: intact CHO-hCB1 cells, 10 μM forskolin, 15 min
T1 construct: host or cells: CHO-K1 (CHO-hCB1)
T1 sequence (P21554 whole entry): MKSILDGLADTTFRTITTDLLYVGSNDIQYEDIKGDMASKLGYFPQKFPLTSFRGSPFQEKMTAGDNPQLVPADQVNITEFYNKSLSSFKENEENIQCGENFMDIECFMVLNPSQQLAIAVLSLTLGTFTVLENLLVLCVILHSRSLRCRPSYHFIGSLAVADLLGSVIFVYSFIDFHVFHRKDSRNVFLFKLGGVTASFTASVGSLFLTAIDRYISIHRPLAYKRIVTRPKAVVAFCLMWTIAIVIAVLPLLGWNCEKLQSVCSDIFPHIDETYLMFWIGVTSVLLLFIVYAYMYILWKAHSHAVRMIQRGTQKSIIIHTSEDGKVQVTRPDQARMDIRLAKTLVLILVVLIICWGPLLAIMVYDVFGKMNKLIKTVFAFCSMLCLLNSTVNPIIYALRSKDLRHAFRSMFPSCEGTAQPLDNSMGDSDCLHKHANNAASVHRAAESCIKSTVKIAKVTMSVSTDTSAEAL

[3] = system: human liver microsomes (HLMs); assay: Glucuronidation of AB-PINACA and JWH-018 metabolites in HLMs; type: in vitro ADME; details: 90 min; for Glucuronide formation (UPLC peak): 50 μM substrate, HLMs with UDPGA, 37°C
Procedure: A typical incubation mixture (30 μl of total volume) contained 100 mM Tris-HCl (pH 7.4), 5 mM MgCl2, 3 mM UDPGA, 80 μg/ml alamethicin, 50 μg HLMs, 5 mM saccharolactone, and 50 μM 4OH- or 5OH-AB-PINACA. […] After incubation at 37°C for 90 min, reactions were terminated by the addition of 30 μl cold ethanol. Following removal of the protein by centrifugation at 12,000 × g for 10 min, a 5-μl portion of the sample was subjected to UPLC. All incubations were performed in triplicate.
Parent compounds and glucuronidated metabolites were identified by the ACQUITY UPLC System with a UV detector (Milford, MA, United States). […] The column was re-equilibrated at initial conditions for 2.5 min between runs. The elution was monitored at 300 nm. The retention times of 4OH-AB-PINACA, 5OH-AB-PINACA, 4OH-AB-PINACA glucuronide, and JWH-018-M2 were 3.989, 3.994, 3.646, and 5.391 min.
FIGURE 4 Glucuronidation of 4OH- and 5OH-AB-PINACA in human liver microsomes (HLMs). 4OH-AB-PINACA (A) and 5OH-AB-PINACA (B) were incubated for 90 min with HLMs in the presence or absence of UDPGA. The terminated reaction mixtures were subjected to the UPLC analysis and the eluent was monitor with a UV detector at 300 nm and chromatograms presented. (C) The peak area of the glucuronide was estimated from the triplicate determinations. The data are presented as mean value ± SD. ND, not detected. (D) Comparison of glucuronidation of JWH-018-M2 and 4OH-AB-PINACA with HLMs. JWH-018-M2 and 4OH-AB-PINACA (5 μM) were incubated for 90 min with HLMs in the presence or absence of UDPGA. The terminated reaction mixtures were subjected to the UPLC analysis and the eluent was monitor with a UV detector at 300 nm. The remaining amount of the substrates was quantified by using standard curves of JWH-018-M2 and 4OH-AB-PINACA. The data was shown as mean value ± SD. ^∗P < 0.001. TEXT PRINTED IN THE PICTURE: (C) 5OH-AB-PINACA: Peak area (μV*sec): ND

hCB1Rs [4] = target: T1, hCB1Rs; assay: biochemical; type: binding; details: for Ki: [^3H]CP-55,940 binding, CHO-hCB1 membranes
hCB1Rs [5] = target: T1, hCB1Rs; assay: biochemical; details: CHO-hCB1 membranes; for Emax: read-out: EMAX, [^35S]GTPγS binding (maximal G-protein activation)
CD1 mice = assay: Cannabinoid-elicited hypothermia (rectal temperature); type: in vivo; details: for Lowest rectal temperature, hypothermic effect vs vehicle / Lowest rectal temperature, drug alone vs rimonabant pretreatment: P < 0.05; for Lowest rectal temperature, drug alone vs rimonabant pretreatment: rimonabant 10.0 mg/kg 60 min before
Procedure: For in vivo studies, rimonabant was synthesized in the laboratory of Dr. Thomas E. Prisinzano at the University of Kansas School of Pharmacy (Lawrence, KS, United States), and provided to us as a generous gift. AB-PINACA, and its 4OH metabolite were obtained from Cayman Chemical Company (Ann Arbor, MI, United States). All cannabinoids were dissolved in a vehicle consisting of ethanol, emulphor and saline at a ratio of 1:1:18. Injections were administered via the intraperitoneal (IP) route at a constant volume of […]. Rimonabant was administered at a dose of 10 mg/kg, 60 min before injection of AB-PINACA or its 4OH metabolite.
Adult male CD1 mice (Charles River Laboratory, Wilmington, MA, United States) were housed three subjects per cage (15.2 cm × 25.4 cm × 12.7 cm) in a temperature-controlled room in a vivarium accredited by the Association for Assessment and Accreditation of Laboratory Animal Care, and given ad libitum food (Laboratory Rodent Diet no. 5001; PMI Feeds, St. Louis, MO, United States) and water. The vivarium was maintained at 22°C ± 2°C and 45–50% humidity, with lights set to a 12-h light/dark cycle (lights on at 6:00 AM, CST). […] All procedures were carried out in accordance with the Guide for Care and Use of Laboratory Animals as adopted and promulgated by the National Institutes of Health (NIH). The experimental protocol has been approved by the Institutional Animal Care and Use Committee (IACUC) at the University of Arkansas for Medical Sciences (UAMS).
Mice were habituated to handling and weighing prior to initiation of experimental procedures. A digital thermometer (model BAT-12, PhysiTemp, Clifton, NJ, United States) equipped with a Ret-3 mouse probe (model 50314, Stoelting Co., Dale, IL, United States) was lubricated and inserted approximately 2 cm into the rectum. Stable temperatures were obtained within ∼6 s. Rectal temperature data were sampled immediately before injection, and at 10, 30, 60, 120, 240, and 360 min after injection.
Curve-fitting was conducted utilizing GraphPad Prism® v6.0b (GraphPad Software, Inc.; San Diego, CA, United States). Non-linear regression for one-site competition was used to determine the IC50 for competition receptor binding. The Cheng-Prusoff equation ([Cheng and Prusoff, 1973]) was employed to convert the experimental IC50 values obtained from competition receptor binding experiments to Ki values (a quantitative measure of receptor affinity). Curve fitting of concentration-effect curves via non-linear regression was also employed to determine the […] or IC50 (measures of potency) and Emax or Imax (measures of efficacy) for the [^35S]GTPγS and adenylyl cyclase experiments, respectively. All dissociation constants and measurements of potency were converted to pKi, pEC50, or pIC50 values by taking the negative log of each value so that parametric tests could be used for statistical comparisons. A one-way ANOVA, followed by Tukey’s Multiple Comparison post hoc test, was used to determine statistical significance (P < 0.05). For animal studies, temperature data are shown as mean values (±SEM) for groups of subjects at each drug dose and time point. For statistical analyses, only the highest dose of AB-PINACA or its 4OH- metabolite (with and without rimonabant pretreatment) were considered. The lowest temperatures recorded for each subject within each group (regardless of when after drug administration it occurred) were compared to vehicle data using a one-way ANOVA and Tukey’s HSD post hoc test. Significance was judged at P < 0.05.

[6] = read-out: IC50, cAMP accumulation (adenylyl cyclase inhibition)
[7] = read-out: pIC50, cAMP accumulation (converted)
[8] = Ki, 0.2 nM [^3H]CP-55,940, Cheng-Prusoff
[9] = pKi, 0.2 nM [^3H]CP-55,940, mean ± SEM
[10] = mean ± SEM, read-out: pEC50, [^35S]GTPγS binding (converted)
[11] = read-out: EC50, [^35S]GTPγS binding

SMILES: CC(C)(C)[C@H](NC(=O)c1nn(CC2CCCCC2)c2ccccc12)C(N)=O
- Concentration in serum [1]: 11.3 ng/mL

SMILES: CC(O)CCCn1nc(C(=O)NC(C(N)=O)C(C)C)c2ccccc21 (stereo not drawn) [4OH-AB-PINACA]
- IMAX, cAMP accumulation (maximal adenylyl cyclase inhibition) (hCB1Rs [2]): 87.0 ± 2.9^a %
- IC50 (hCB1Rs [2]; [6]): 141 nM
- IC50 (hCB1Rs [2]; [7]): 129 nM
- Remaining amount of substrate in the presence vs absence of UDPGA ([3]; 5 μM substrate, HLMs, Figure 4D): such disappearance of substrate is not observed
- Glucuronide formation (UPLC peak) [3]: unique peak is observed; also recorded: slightly glucuronidated
- hCB1R affinity relative to the parent compound AB-PINACA (fold less) (hCB1Rs [4]; 159 nM vs 4 nM): approximately 40 fold
- Ki (hCB1Rs [4]; [8]): 159 nM
- Ki (hCB1Rs [4]; [9]): 151 nM
- Emax (hCB1Rs [5]; mean ± SEM): 92.6 ± 13.4%
- EC50 (hCB1Rs [5]; [10]): 813 nM
- EC50 (hCB1Rs [5]; [11]): 952 nM
- Lowest rectal temperature, hypothermic effect vs vehicle (CD1 mice; 100.0 mg/kg i.p.): significantly different
- Lowest rectal temperature, drug alone vs rimonabant pretreatment (CD1 mice; 100.0 mg/kg i.p.): significantly different
- Dose required for a similar level of hypothermia relative to AB-PINACA (CD1 mice; 100 mg/kg vs 10 mg/kg): ~10 fold
- Effect on rectal temperature (CD1 mice; 30.0 and 100.0 mg/kg, i.p.): dose- and time-dependent hypothermic effects

SMILES: CC(C)C(NC(=O)c1nn(CCCCCO)c2ccccc12)C(N)=O (stereo not drawn) [5OH-AB-PINACA]
- Glucuronide formation (UPLC peak) [3]: no such peak is observed; also recorded: glucuronidation is not involved in the clearance
- Ki (hCB1Rs [4]; [8]): 452 nM
- Ki (hCB1Rs [4]; [9]): 447 nM
- Emax (hCB1Rs [5]; mean ± SEM): 100 ± 16.8%
- EC50 (hCB1Rs [5]; [10]): 2820 nM
- EC50 (hCB1Rs [5]; [11]): 2740 nM

SMILES: CC(C)[C@H](NC(=O)c1nn(Cc2ccc(F)cc2)c2ccccc12)C(N)=O [AB-FUBINACA]
- Concentration in urine [1]: 1.1 ng/mL

SMILES: CCCCCn1nc(C(=O)N[C@H](C(N)=O)C(C)C)c2ccccc21 [AB-PINACA, (S)-N1(1-amino-3-methyl-1-oxobutan-2-yl)-1-pentyl-1H-indazole-3-carbox-amide]
- IMAX, cAMP accumulation (maximal adenylyl cyclase inhibition) (hCB1Rs [2]): 72.0 ± 2.1^b %
- IC50 (hCB1Rs [2]; [6]): 3.9 nM
- IC50 (hCB1Rs [2]; [7]): 2.24 nM
- Ki (hCB1Rs [4]; [8]): 4 nM
- Ki (hCB1Rs [4]; [9]): 1.78 nM
- Concentration in serum [1]: 1.2 ng/mL
- Concentration in urine [1]: 0.9 ng/mL
- Emax (hCB1Rs [5]; mean ± SEM): 71.9 ± 5.8%
- EC50 (hCB1Rs [5]; [10]): 8.71 nM
- EC50 (hCB1Rs [5]; [11]): 12.8 nM
- Lowest rectal temperature, hypothermic effect vs vehicle (CD1 mice; 10.0 mg/kg i.p.): significantly different
- Lowest rectal temperature, drug alone vs rimonabant pretreatment (CD1 mice; 10.0 mg/kg i.p.): significantly different
- Effect on rectal temperature (CD1 mice; 3.0 and 10.0 mg/kg, i.p.): dose- and time-dependent hypothermic effects
- Effect on rectal temperature (CD1 mice; lowest tested dose (1.0 mg/kg), i.p.): prevents the typical injection-elicited increase in rectal temperature

SMILES: Cc1c(C(=O)NN2CCCCC2)nn(-c2ccc(Cl)cc2Cl)c1-c1ccc(Cl)cc1 [Rimonabant, reference compound]
- Effect on rectal temperature (CD1 mice; 10 mg/kg, alone): does not alter rectal temperature

SMILES: C=C(C)C(C)(C)CC(=O)c1cn(CCCCC(=O)O)c2ccccc12 [UR-144-pentanoic acid degradant]
- Concentration in serum [1]: 5.4 ng/mL
